# Experiments:
# [1] = target: T1, full-length purified human estrogen receptor ERα (Homo sapiens, UniProt P03372); assay: ERα competitive radiometric binding assay; settings: for RBA ERα (relative binding affinity): RBA = IC50[estradiol]/IC50[compound] × 100, estradiol = 100, 2 nM [3H]-estradiol tracer, 18–24 h at 0 °C
# T1 construct: full-length purified human estrogen receptors ERα and ERβ
# T1 sequence (P03372 1-595): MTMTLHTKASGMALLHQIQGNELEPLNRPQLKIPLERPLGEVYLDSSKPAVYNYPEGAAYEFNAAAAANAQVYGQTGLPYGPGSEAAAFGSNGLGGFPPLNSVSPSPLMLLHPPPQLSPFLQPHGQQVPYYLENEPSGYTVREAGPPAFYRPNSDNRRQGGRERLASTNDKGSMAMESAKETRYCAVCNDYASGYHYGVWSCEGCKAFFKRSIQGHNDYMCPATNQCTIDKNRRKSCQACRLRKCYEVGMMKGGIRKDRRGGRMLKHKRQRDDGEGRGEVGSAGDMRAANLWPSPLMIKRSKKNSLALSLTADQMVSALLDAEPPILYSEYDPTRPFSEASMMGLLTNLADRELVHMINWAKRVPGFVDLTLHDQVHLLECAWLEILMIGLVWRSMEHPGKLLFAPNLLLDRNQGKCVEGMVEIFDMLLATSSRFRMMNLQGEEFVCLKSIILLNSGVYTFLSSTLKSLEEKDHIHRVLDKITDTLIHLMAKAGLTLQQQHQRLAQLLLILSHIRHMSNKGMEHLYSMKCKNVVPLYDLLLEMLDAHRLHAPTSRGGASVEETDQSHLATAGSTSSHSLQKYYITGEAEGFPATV
# Description: The receptors and ligands were incubated for 18–24 h at 0 °C and then the receptor–ligand complexes separated using hydroxyapatite (BioRad, Hercules, CA, USA).
# [2] = target: T2, full-length purified human estrogen receptor ERβ (Homo sapiens, UniProt Q92731); assay: ERβ competitive radiometric binding assay; settings: for RBA ERβ (relative binding affinity): RBA = IC50[estradiol]/IC50[compound] × 100, estradiol = 100, 2 nM [3H]-estradiol tracer, 18–24 h at 0 °C
# T2 construct: full-length purified human estrogen receptors ERα and ERβ
# T2 sequence (Q92731 whole entry): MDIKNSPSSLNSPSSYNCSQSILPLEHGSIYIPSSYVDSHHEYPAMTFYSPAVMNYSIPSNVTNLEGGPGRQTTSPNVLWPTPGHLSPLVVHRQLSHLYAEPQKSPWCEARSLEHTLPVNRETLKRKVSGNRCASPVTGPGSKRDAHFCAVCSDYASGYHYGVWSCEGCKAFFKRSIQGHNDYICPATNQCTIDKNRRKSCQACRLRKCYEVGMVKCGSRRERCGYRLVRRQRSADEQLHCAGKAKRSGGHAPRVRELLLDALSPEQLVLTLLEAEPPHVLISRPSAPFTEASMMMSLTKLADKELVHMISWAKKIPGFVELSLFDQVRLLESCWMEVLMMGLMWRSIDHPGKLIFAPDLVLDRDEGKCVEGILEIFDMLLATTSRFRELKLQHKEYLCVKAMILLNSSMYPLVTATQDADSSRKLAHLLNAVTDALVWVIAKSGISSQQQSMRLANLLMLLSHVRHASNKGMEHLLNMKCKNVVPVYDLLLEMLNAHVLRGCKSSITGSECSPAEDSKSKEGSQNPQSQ
# Description: . The receptors and ligands were incubated for 18–24 h at 0 °C and then the receptor–ligand complexes separated using hydroxyapatite (BioRad, Hercules, CA, USA). […]
# MCF-7 cells = assay: MCF-7 cell proliferation, sulforhodamine B (SRB) assay; format: cell-based, human; settings: 0.001–1 µM, 48 h exposure, vs vehicle control
# Description: The SRB assay has been used to study the effects of phytochemicals such as XN, DXN and 8-PN on cell proliferation of various cancer cell lines, including MCF-7 cells[91],[92]. SRB is a dye that binds to cellular proteins of adherent cells and the absorbance readings are a measure of the number of viable cells (cell mass) attached to the culture plate after incubation with the test compounds (samples) in comparison with vehicle control cells. The cell mass is then extrapolated as a measurement of cell viability and cell proliferation. Increased proliferation of MCF-7 cells is one of the measures of estrogenicity of phytochemicals. MCF-7 cells were plated at 10,000 cells/well in 96-well plates in DMEM medium containing 10% charcoal-stripped FBS and antibiotics. […] After incubation with the test compounds for 48 h, the cell culture medium was removed from each well of the 96-well plate and the cells were fixed for 1 h with 10% trichloroacetic acid. The cells on the plate were washed five with distilled water, air-dried, and then stained with SRB dye (0.4% w/v in 1% acetic acid). Excess dye was removed by washing the plate five times with 1% acetic acid. The plates were air-dried and the adsorbed dye was solubilized in 10 mM Tris buffer for 5 min on a shaker before reading the optical density (OD) at 565 nm. The percentage cell viability/proliferation was calculated as follows: (ODSample−ODZeroblank)/(ODControl−ODZeroblank)×100. Mean values and the coefficient of variation (CV) from six replicate wells were calculated and a one-way ANOVA was used to compare statistical differences between treated and control cells, with p < 0.05 as the level of significance.
# [3] = system: progesterone receptor (PGR) expression in MCF-7 cells; assay: Progesterone receptor (PGR) gene expression in MCF-7 cells, real-time PCR; format: cell-based, human; settings: 20 h; estradiol 1 and 10 nM; 8-PN, XN, DXN, TXN 0.2, 1 and 5 μM; vs 0.1% ethanol
# Description: MCF-7 cells (American Type Culture Collection, Manassas, VA, USA) were cultured in DMEM (Corning Life Sciences, Tewksbury, MA, USA) supplemented with 10% fetal bovine serum (Corning Life Sciences) and 100 μg/ml penicillin/streptomycin (Invitrogen, Carlsbad, CA, USA). For estrogen-free experiments, cells were seeded in phenol-free DMEM (Gibco/Life Technologies, Grand Island, NY, USA) plus 10% charcoal-dextran-treated FBS (Corning Life Sciences) at 5 × 10^5 cells/well of a 6-well plate. […] Total RNA was isolated using TRIzol (Invitrogen) and converted into cDNA using iScript (Bio-Rad, Hercules, CA, USA). Real-time PCR was performed in triplicate on a CFX-96 (Bio-Rad) using primer-probe assays (IDT Technologies, Coralville, IA, USA) and SsoAdvanced Universal Probes Supermix (Bio-Rad) to quantify progesterone receptor (PGR) and GAPDH levels. The ratio of PGR to GAPDH was calculated as 2^−ΔCt PGR/2^−ΔCt GAPDH. Data were analyzed using a one-way ANOVA (p < 0.05 was considered statistically significant) and a post-hoc Tukey’s multiple comparison test. Induction of the progesterone receptor in MCF-7 cells is one of the indices of estrogenicity of flavonoids such as 8-PN[94].
# C2C12 cells = assay: Seahorse OCR and ECAR measurements (mitochondrial uncoupling); format: cell-based, mouse; settings: oligomycin 1 μM, C2C12 cells
# Description: OCR and ECAR measurements were performed with a Seahorse XF 24 Analyzer (Agilent Technologies, Inc., Santa Clara, CA, USA). C2C12 cells were plated in culture medium at a density of 40,000 cells per well in a 24-well plate. The cells were then allowed to adhere for 24 h (37 °C, 5% CO2). Prior to the assay, the cells were washed with freshly prepared running medium consisting of Seahorse XF Assay medium (Agilent Technologies, Inc., Santa Clara, CA, USA), 10 mM glucose and 1 mM sodium pyruvate. The pH of the medium was adjusted to 7.4 with 1 M NaOH. The cells were then equilibrated for one hour at 37 °C without CO2. […] To overcome this problem, the test compounds were first dissolved in ethanol and the resulting solution was diluted 100-fold in treatment medium (9 parts XF media and 1 part 10% FBS media) which was added directly to cells. The treatment medium contained 1% FBS and after a further 10-fold dilution into the media in wells, only 0.1% FBS was present during OCR and ECAR measurements. The final concentrations in the wells were: 1 μM for oligomycin, and 5 μM for XN, DXN or TXN. The concentration of oligomycin and the cell density used were selected based on preliminary experiments. Ethanol was added to the control wells not to exceed a final concentration of 0.1% (vehicle control). OCR and ECAR were measured at 9-min intervals.
# Seahorse data: to show a consistent baseline, OCR values (in pmol/min/mg protein) and ECAR values (in mpH/min/mg protein) for each value were divided, prior to statistical analysis, by the average of the four pre oligomycin treatment values (0, 8, 17, and 25 min) for the corresponding well and are shown as % pre oligomycin values. To account for repeated measures within wells over time, we utilized a repeated-measures-in-time design using ANOVA procedures in PROC MIXED (SAS). Fixed effects in the model were treatment (control, 5 μM XN, 5 μM DXN, and 5 μM TXN for the compound study), time (0, 8, 17, 25, 34, 43, 52, 60, 69, 78, 86, and 95 min), and their interaction. The random effect was the experiment (5 experiments for the compound study). To account for repeated measures within wells over time, a first order homogeneous variance-covariance matrix [AR(1)] was fitted for each well. Using the ESTIMATE statement, a priori contrasts were constructed by comparing the changes in compound treated cells from the last two time points prior to compound treatment (average 52 and 60 min) to the changes in control cells during the same time-period. This was carried out for each compound and dosage for 69, 78, 86, and 95 min separately and for all four time points combined. Results are shown in the text and the graphs as least squares means and their corresponding SEM (standard error of mean). […]
# [4] = set-up: method as in PMID 17517853, PMID 20154334; settings: meta-analysis of 42 trials, p = 0.03; cited from earlier work
compound,measurement,setting,value
"CC(C)=CCc1c(O)cc(O)c2c1O[C@H](c1ccc(O)cc1)CC2=O [8-PN, 8-prenylnaringenin, reference compound]","fold greater affinity for ERα compared to XN, DXN, and TXN",[1],> 100 fold
same,RBA ERα (relative binding affinity),[1],0.686 ± 0.18
same,"fold greater affinity for ERβ compared to XN, DXN, and TXN",[2],> 100 fold
same,RBA ERβ (relative binding affinity),[2],2.42 ± 0.62
same,MCF-7 cell viability/proliferation at low concentrations,MCF-7 cells,induced cell proliferation
same,induction of PGR expression,[3],statistically significant induction
"CC[C@H]1/C=C/C=C/C[C@@H](C)[C@H](O)[C@@](C)(O)C(=O)[C@@H](C)[C@H](O)[C@@H](C)C(=O)[C@@H](C)[C@H](O)[C@@H](C)/C=C/C(=O)O[C@@H]2[C@H](C)[C@H](CC1)O[C@]1(CC[C@H](C)[C@H](C[C@@H](C)O)O1)[C@H]2C [oligomycin, reference compound]",Increase in ECAR,C2C12 cells,1.6 fold
CN(CCOc1ccc(CC2SC(=O)NC2=O)cc1)c1ccccn1 (centres unmarked) [rosiglitazone],Increased risk of heart attack,[4],43%
"C[C@]12CC[C@@H]3c4ccc(O)cc4CC[C@H]3[C@@H]1CC[C@@H]2O [estradiol, 17β-estradiol, reference compound]",induction of PGR expression,[3],statistically significant induction
"COc1cc(O)c(CC=C(C)C)c2c1C(=O)CC(c1ccc(O)cc1)O2 (centres unmarked) [IX, Isoxanthohumol, reference compound]",RBA ERα (relative binding affinity),[1],0.0020 ± 0.0002
same,RBA ERβ (relative binding affinity),[2],0.019 ± 0.004

# Reference: article PMC5766630, “Non-estrogenic Xanthohumol Derivatives Mitigate Insulin Resistance and Cognitive Impairment in High-Fat Diet-induced Obese Mice” (Scientific Reports, 2018)
